The record followed here is patent US20240300943A1, “NOVEL SALTS OF HETEROCYCLIC COMPOUND AS PROTEIN KINASE INHIBITOR AND USES THEREOF” (HK INNO.N CORPORATION, priority 2021, published 2024).

Data set [1] concerns anti-CD3 and anti-CD28-activated PBMC of patients with atopic dermatitis. The experiment in a line: IL-13, IL-10 and TNF-α secretion in activated PBMC of atopic patients. Format: cell-based, human. Conditions: 100 nM and 1,000 nM, 24 hours, FIG. 9. The procedure: 50 μL of DNase I (2000 unit/mL) was added to 50 mL of cell culture medium and mixed. (Since enzyme and cells were used, the medium was heated in a 37° C. water bath before use.) In addition, PMBC of atopic patients was rapidly dissolved in a 37° C. water bath.
PMBC was slowly flowed into the prepared medium, and reacted at 37° C. for five minutes. Centrifugation was performed using a centrifuge at 200 rpm for 15 minutes, after which supernatants were removed, suspended in 1 mL of cell culture medium, and counted.
Cells were diluted in cell culture medium and seeded in a 96-well plate to reach 2×10^5 cells/100 μL/well.
50 μL of PBMC activation medium (0.5 μg/ml CD3 antibody, 5 μg/ml CD28 antibody) was added to every well except the negative control well. (50 μL of cell culture medium was added to each negative control well.)
50 μL of the test material was added to each well according to each concentration. (final concentration of 1 nM, 10 nM, 100 nM, 1,000 nM, 50 μL of cell culture medium was added to each negative control well.)
After incubation in a 5% CO2 incubator at 37° C. for 24 hours, the plates were centrifuged at 200 rpm for 15 minutes as they were, and 150 μL of the suspension was taken, placed in a 96-well round bottom plate, and stored in a deep freezer at minus 80° C.
After the culture supernatant samples were dissolved, ELISA was performed according to the data sheet protocol of ELISA kit.

The test system of another data set is JAK1, 3. Description: Human whole blood assay, JAK1, 3. The settings on record: cytokine-induced STAT phosphorylation. It counts as cell-based.
Another data set has as its system JAK2. Description: Human whole blood assay, JAK2. The settings on record: cytokine-induced STAT phosphorylation. It counts as cell-based. The method, then: A stock solution of Compound 1 obtained according to Preparation Example 1 was diluted with distilled water and then serially diluted at ⅕ with 4% DMSO. 5 μL of test material was added to 100 μL of whole blood collected using a 1.7 mL eppendorf tube, mixed, and incubated at 37° C. for 45 minutes.
IL-6 (10 μg/ml) was diluted with 0.1% BSA/DW to reach 1 μg/mL each. 5 μL of IL-6 was added (at a final concentration of 50 ng/mL) and incubated at 37° C. for 15 minutes. At this time, 5 μL of DPBS was added as a non-stimulated control group. Lyse/fix buffer 5× was diluted 1× in distilled water and used. […]
For double staining of CD4 and pSTATI, anti-[…] and anti-pSTATI were mixed in a staining buffer and added to each of the samples. […] On the next day, the results were analyzed using FACSCanto II. […]
The numerical values analyzed by FlowJo were calculated to obtain IC50 values using GraphPad Prism 5 software (product name).
No treatment response (NTR) was set as a reference, and the degree of the phosphorylation of STAT induced by cytokines was converted into a relative ratio (% control group). A dose-response plot was obtained for each concentration-dependent activity of each test material using GraphPad Prism (version 5.0) and ICso values were calculated.

Data set [2] in a line: Physical stability evaluation under stress conditions. Format: physicochemical. The procedure: In order to evaluate physical stability, samples were packaged in the form of ((LPDE+N2)+silica gel 1 g+LDPE)+Al-Bag, and stored under stress conditions (60° C.±2° C./80% RH±5%) for 2/4 weeks before evaluation.
In table 2, initial is a result measured after preparation of salts, and S2W and S4W are results measured after two and four weeks while being exposed to stress conditions, respectively.

A short description of data set [3]: Measurement of water solubility. Format: physicochemical. Conditions: saturated solution shaken at room temperature for 24 hours. The method, then: A liquid phase was taken out of the solution and filtered using a 0.22 μm PVDF filter. The filtered liquid phase was diluted 10-fold for LC analysis.
LC analysis was performed by the following method.

Data set [4] has as its system DNCB-induced animal model (NC/Nga mice). Description: DNCB-induced atopic dermatitis model (PO). It counts as in vivo. The settings on record: twice a day for 28 days, FIGS. 17 to 19. The method, then:
A DNCB-induced animal model was prepared in substantially the same manner as the DNCB model (topical) in Experimental Example 6, except that the phosphate compound was orally administered, and the phosphate compound obtained according to Example 3 was administered. The phosphate compound was orally administered a total of 56 times twice a day for 28 days, and an administration interval was eight hours. The dosage (10 mL/kg) was calculated and determined based on the body weight measured on the day of administration, and intragastrically administered through the mouth of mice using a 1 ml syringe and a feeding needle. The control group was dosed with 0.5% methylcellulose (0.5% MC).

Regarding `C[C@@H]1CN(C(=O)CC#N)CC=C1c1cc(NC(=O)C2CC2)nc2[nH]ccc12` [Compound 1, (S)—N-(4-(1-(2-cyanoacetyl)-3-methyl-1,2,3,6-tetrahydropyridin-4-yl)-1H-pyrrolo[2,3-b]pyridin-6-yl)cyclopropanecarboxamide], in data set [1], the IL-10 secretion result is “significantly reduced”, the IL-13 secretion entry is “significantly reduced” and the TNF-α secretion result is “significantly reduced”. Moreover, in the data set with JAK1, 3, 0.544 µM corresponded to half-maximal inhibition (IC50). In the data set on JAK2, this molecule showed an IC50 of 0.774 µM.
Take `C[C@@H]1CN(C(=O)CC#N)CC=C1c1cc(NC(=O)C2CC2)nc2[nH]ccc12` [Example 3, (S)—N-(4-(1-(2-cyanoacetyl)-3-methyl-1,2,3,6-tetrahydropyridin-4-yl)-1H-pyrrolo[2,3-b]pyridin-6-yl)cyclopropanecarboxamide]: in data set [2] (Initial), the C.I quantitative was found to be 24.0%; the “Content (anhydride, as anhydride)” value stood at 98.9%; the Moisture was determined as 0.2%; the “Purity: Individual related material” value was 0.08%. Further, the “Purity: Total related material” value in data set [2] (Initial) turned out to be 0.41%. Also, in data set [2] (S2W: 2 weeks at 60° C./80% RH), the C.I quantitative turned out to be 24.1%; the “Content (anhydride, as anhydride)” value is on record as 99.9%; the Moisture was 0.2%; the “Purity: Individual related material” value was found to be 0.08%. In addition, the “Purity: Total related material” value in data set [2] (S2W: 2 weeks at 60° C./80% RH) is listed as 0.43%. For the same molecule, in data set [2] (S4W: 4 weeks at 60° C./80% RH), the C.I quantitative is on record as 23.8%; the “Content (anhydride, as anhydride)” value came out at 99.9%; the Moisture was 0.2%; the “Purity: Individual related material” value is recorded as 0.11%. For the same molecule, the “Purity: Total related material” value in data set [2] (S4W: 4 weeks at 60° C./80% RH) worked out at 0.53%. The Water solubility in data set [3] came to 3.9 mg/mL. Also, in data set [4], the “Symptoms of atopic dermatitis” value is listed as “ameliorates symptoms of atopic dermatitis”.

What is called IC50 is the concentration that gives 50% inhibition. Low values mean higher potency, high ones lower potency.
